Data set [1] concerns MRC5 lung fibroblast cells. As to the kind of experiment: Selective toxicity, CCK-8 assay, non-malignant MRC5 lung fibroblasts. The format is cell-based. The note with it: for IC50: Homo sapiens, non-malignant MRC5 lung fibroblasts, 48 h exposure, CCK-8. The method, then: (§1) In vitro cytotoxicity of the phosphorated aspartic acid derivatives was evaluated by testing their antiproliferative activities against several human cancer cell lines. Cell counting kit (CCK-8) assay was used for the evaluation of growth inhibition. […] In addition, trisubstituted aminophosphonate 9a (Imine precursor, R^1 = H, R^2 = P(O)(OMe)2) and tetrasubstituted aminophosphonate 18 (R^1 = Me, R^2 = P(O)(OMe)2) are used as templates in order to evaluate the effect of the substituents (Table 1).
(§2) Human epithelial lung carcinoma cells (A549) (ATCC® CCL-185™, ATCC, Manassas, VA, USA) were grown in Kaighn’s Modification of Ham’s F-12 Medium (ATCC® 30-2004™, ATCC, Manassas, VA, USA) and lung fibroblast cells (MRC5) (ATCC® CCL-171™, ATCC, Manassas, VA, USA) were grown in Eagle’s Minimum Essential Medium (EMEM, ATCC® 30-2003™, ATCC, Manassas, VA, USA). Epithelial ovary adenocarcinoma cells (SKOV3) (ATCC® HTB-77™, ATCC, Manassas, VA, USA) were grown in McCoy’s 5A medium (ATCC® 30-2007™, ATCC, Manassas, VA, USA). All of them were supplemented with 10% of fetal bovine serum (FBS) (Sigma-Aldrich, Madrid, Spain) and with 1% of NORMOCIN solution (Thermo Fisher, Waltham, MA, USA). Cells were incubated at 37 °C and 5% CO2 atmosphere, and were split every 3–4 days to maintain monolayer coverage. For the cytotoxicity experiments, the A549 and SKOV3 cells were seeded in 96-well plates at a density of 2.5–3 × 10^3 cells per well and incubated overnight to achieve 70% of confluence at the time of exposition to the cytotoxic compound.
(§3) Cells were exposed to different concentrations of the cytotoxic compounds and were incubated for 48 h. Then, 10 µL of cell counting kit-8 was added into each well for an additional two hours’ incubation at 37 °C. The absorbance of each well was determined by an Automatic Elisa Reader System (Thermo Scientific Multiskan FC Automatic Elisa Reader System, Thermo Scientific, Shanghai, China) at 450 nm wavelength.

The subject of data set [2] is A549 (carcinomic human alveolar basal epithelial) cells. As to the kind of experiment: In vitro cytotoxicity (antiproliferative activity), CCK-8 assay, A549. The format is cell-based. The conditions noted are these: for IC50: Homo sapiens, 48 h exposure, CCK-8. As for the experimental part: as §1, §2, §3
Data set [3] concerns SKOV3 (human ovarian carcinoma) cells. As to the kind of experiment: In vitro cytotoxicity (antiproliferative activity), CCK-8 assay, SKOV3. The conditions noted are these: for IC50: Homo sapiens, SK-OV-3, 48 h exposure, CCK-8. The format is cell-based. The method, then:
as §1, §2, §3

Molecules are shown by their SMILES.

Molecule `CCOC(=O)CC(NS(=O)(=O)c1ccc(C)cc1)(c1ccc(C(F)(F)F)cc1)P(=O)(OC)OC` (centres unmarked) [7p, Ethyl 3-(dimethoxyphosphoryl)-3-((4-methylphenyl)sulfonamido)-3-(4-(trifluoromethyl)phenyl)propanoate] had a melting point of 114 to 115 °C. Also, in data set [1], the concentration for half-maximal inhibition (IC50) was > 50 µM and the “toxicity toward MRC5 non-malignant cells (in words)” value was “no toxicity”. In data set [2] (A549, 48 h), the midpoint of inhibition, the IC50, lay at 20.3 ± 1.14 µM. The 50% inhibitory concentration (IC50) in data set [3] worked out at 9.8 ± 0.6 µM.
In data set [2] (A549, 48 h), `CCOC(=O)C[C@](NS(=O)(=O)c1ccc(C)cc1)(c1cccc(F)c1)P(=O)(OC)OC` [(R)-7k] came in with an IC50 of 1.61 ± 0.2 µM.
`COP(=O)(OC)C(CC(=O)OCc1ccccc1)(NS(=O)(=O)c1ccc(C)cc1)c1ccccc1` (centres unmarked) [13b, Benzyl 3-(dimethoxyphosphoryl)-3-((4-methylphenyl)sulfonamido)-3-phenylpropanoate] yielded a melting point of 84 to 85 °C. In addition, in data set [1], the IC50 is > 50 µM. Besides, in data set [2] (A549, 48 h), the half-maximal inhibitory concentration (IC50) worked out at 5.2 ± 0.16 µM. Also, the IC50 in data set [3] is > 50 µM.
On to `CCOC(=O)CC(NS(=O)(=O)c1ccc(C)cc1)(c1ccc(SC(Cl)(Cl)Cl)cc1)P(=O)(OC)OC` (centres unmarked) [7d, Ethyl 3-(dimethoxyphosphoryl)-3-((4-methylphenyl)sulfonamido)-3-(4-((trichloromethyl)thio)phenyl)propanoate], for which the melting point lay in the range of 123 to 124 °C. In data set [1], this molecule registered an IC50 of 2.47 ± 0.3 µM. In data set [2] (A549, 48 h), this molecule returned a half-maximal inhibitory concentration (IC50) of 4.41 ± 0.29 µM. The molecule further displayed an IC50 in data set [3] of 6.43 ± 0.64 µM.
The like results for `CCOC(=O)CC(NS(=O)(=O)c1ccc(C)cc1)(c1ccc([N+](=O)[O-])cc1)P(=O)(OC)OC` (centres unmarked) [7q, Ethyl 3-(dimethoxyphosphoryl)-3-((4-methylphenyl)sulfonamido)-3-(4-nitrophenyl)propanoate] were, in that order, 129 to 130 °C, > 50 µM, 0.67 ± 0.06 µM and > 50 µM.
Regarding `CCOC(=O)CC(NS(=O)(=O)c1ccc(C)cc1)c1ccccc1` (centres unmarked) [compound 5, Ethyl 3-((4-methylphenyl)sulfonamido)-3-phenylpropanoate], the concentration for half-maximal inhibition (IC50) in data set [1] was > 50 µM; in data set [2], 18.7 ± 2.16 µM; in data set [3], > 50 µM.
The molecule `CCOC(=O)CC(NS(=O)(=O)c1ccc(C)cc1)(c1ccc(OC)c(Cl)c1)P(=O)(OC)OC` (centres unmarked) [7i, Ethyl 3-(3-chloro-4-methoxyphenyl)-3-(dimethoxyphosphoryl)-3-((4-methylphenyl)sulfonamido)propanoate] came in with a melting point of 153 to 154 °C. Also, in data set [1], the IC50 was > 50 µM. Also, the IC50 in data set [2] (A549, 48 h) amounted to 1.44 ± 0.15 µM. For the same molecule, the 50% inhibitory concentration (IC50) in data set [3] is > 50 µM.
Consider `CCOC(=O)CC(NS(=O)(=O)c1ccc(C)cc1)(c1ccc(Cl)s1)P(=O)(OC)OC` (centres unmarked) [7r, Ethyl 3-(5-chlorothiophen-2-yl)-3-(dimethoxyphosphoryl)-3-((4-methylphenyl)sulfonamido)propanoate], for which the melting point lay in the range of 93 to 94 °C. Moreover, the half-inhibitory concentration (IC50) in data set [1] was > 50 µM. In addition, in data set [2] (A549, 48 h), half-maximal inhibition (IC50) was put at 1.04 ± 0.28 µM. The molecule also had an IC50 in data set [3] of 11.8 ± 0.6 µM.
For `CCOC(=O)CC(NS(=O)(=O)c1ccc(C)cc1)(c1cccc(C)c1)P(=O)(OC)OC` (centres unmarked) [7c, Ethyl 3-(dimethoxyphosphoryl)-3-((4-methylphenyl)sulfonamido)-3-(m-tolyl)propanoate], the melting point was 103 to 104 °C. Moreover, the IC50 in data set [1] is > 50 µM. In data set [2] (A549, 48 h), this molecule returned a concentration for half-maximal inhibition (IC50) of 2 ± 0.52 µM. In data set [3], the “cytotoxicity against SKOV3 cell line (in words)” value is reported as “no activity” and the IC50 was > 50 µM.
`CCOC(=O)CC(NS(=O)(=O)c1ccc(C)cc1)(c1ccc(F)c(F)c1)P(=O)(OC)OC` (centres unmarked) [7n, Ethyl 3-(3,4-difluorophenyl)-3-(dimethoxyphosphoryl)-3-((4-methylphenyl)sulfonamido)propanoate] displayed a melting point of 98 to 99 °C. In data set [1], the IC50 is > 50 µM. Moreover, in data set [2] (A549, 48 h), the IC50 was determined as 5.7 ± 0.7 µM. Further, in data set [3], the concentration for half-maximal inhibition (IC50) is > 50 µM.
`CCOC(=O)CC(NS(=O)(=O)c1ccc(C)cc1)(c1cccc(Cl)c1)P(=O)(OC)OC` (centres unmarked) [7g, Ethyl 3-(3-chlorophenyl)-3-(dimethoxyphosphoryl)-3-((4-methylphenyl)sulfonamido)propanoate]: the melting point was in the range of 88 to 89 °C. Besides, in data set [1], the half-inhibitory concentration (IC50) was determined as 38.1 ± 1.61 µM and the “toxicity toward MRC5 non-malignant cells (in words)” value is listed as “toxic against the healthy cells”. The same molecule yielded an IC50 in data set [2] (A549, 48 h) of 2.96 ± 0.34 µM. For the same molecule, the half-maximal inhibitory concentration (IC50) in data set [3] is > 50 µM.
Regarding `CCOC(=O)CC(NS(=O)(=O)c1ccc(C)cc1)(c1ccc(Cl)c(Cl)c1)P(=O)(OC)OC` (centres unmarked) [7h, Ethyl 3-(3,4-dichlorophenyl)-3-(dimethoxyphosphoryl)-3-((4-methylphenyl)sulfonamido)propanoate], the melting point fell in the range of 109 to 110 °C. In data set [1], this molecule displayed a half-inhibitory concentration (IC50) of 11.3 ± 1.16 µM. The molecule also showed an IC50 in data set [2] (A549, 48 h) of 1.05 ± 0.42 µM. Moreover, 6.94 ± 0.63 µM corresponded to half-maximal inhibition in data set [3] (IC50).
With `CCOC(=O)CC(NS(=O)(=O)c1ccc(C)cc1)(c1ccc(Cl)cc1)P(=O)(OC)OC` (centres unmarked) [7f, Ethyl 3-(4-chlorophenyl)-3-(dimethoxyphosphoryl)-3-((4-methylphenyl)sulfonamido)propanoate], the melting point is 133 to 134 °C. Also, the concentration for half-maximal inhibition (IC50) in data set [1] is > 50 µM. In data set [2] (A549, 48 h), this molecule displayed an IC50 of 3.09 ± 0.14 µM. For the same molecule, the IC50 in data set [3] was found to be 24.1 ± 1.45 µM.
Regarding `COP(=O)(OC)C(CC(=O)O)(NS(=O)(=O)c1ccc(C)cc1)c1ccccc1` (centres unmarked) [compound 14, 3-(Dimethoxyphosphoryl)-3-((4-methylphenyl)sulfonamido)-3-phenylpropanoic acid], the IC50 in data set [1] was > 50 µM; in data set [2] (A549, 48 h), 20.6 ± 1.05 µM; in data set [3], > 50 µM.
Molecule `CCOC(=O)CC(NS(=O)(=O)c1ccc(C)cc1)(c1ccc(F)cc1)P(=O)(OC)OC` (centres unmarked) [7j, Ethyl 3-(dimethoxyphosphoryl)-3-(4-fluorophenyl)-3-((4-methylphenyl)sulfonamido)propanoate] yielded a melting point of 111 to 112 °C. In addition, the 50% inhibitory concentration (IC50) in data set [1] is > 50 µM. For the same molecule, the IC50 in data set [2] (A549, 48 h) came to 7.15 ± 0.24 µM. The half-inhibitory concentration (IC50) in data set [3] is > 50 µM.
Turning to `COP(=O)(OC)C(C)(NS(=O)(=O)c1ccc(C)cc1)c1ccccc1` (centres unmarked) [compound 18, Dimethyl (1-((4-methylphenyl)sulfonamido)-1-phenylethyl)phosphonate], the “cytotoxicity against A549 cell line (in words)” value in data set [2] was “no cytotoxicity”. Besides, the IC50 was > 50 µM in data set [2] (A549, 48 h) and > 50 µM in data set [3].
`COP(=O)(OC)C(CC(=O)OCc1ccccc1)(NS(=O)(=O)c1ccc(C)cc1)c1cccc(F)c1` (centres unmarked) [13a, Benzyl 3-(dimethoxyphosphoryl)-3-(3-fluorophenyl)-3-((4-methylphenyl)sulfonamido)propanoate] had a melting point of 78 to 79 °C. Besides, half-maximal inhibition in data set [2] (A549, 48 h) (IC50) required 12.8 ± 2.38 µM. In data set [3], the “cytotoxicity against SKOV3 cell line (in words)” value was “no toxicity” and the half-inhibitory concentration (IC50) is > 50 µM.
`CCOC(=O)C[C@@](NS(=O)(=O)c1ccc(C)cc1)(c1cccc(F)c1)P(=O)(OC)OC` [(S)-7k] returned an IC50 in data set [2] (A549, 48 h) of 1.56 ± 0.39 µM.
On to `COc1cccc2c1C(=O)c1c(O)c3c(c(O)c1C2=O)C[C@@](O)(C(=O)CO)C[C@@H]3O[C@H]1C[C@H](N)[C@H](O)[C@H](C)O1` [Doxorubicin, reference compound], for which the IC50 in data set [2] is < 0.1 µM.
Take `COP(=O)(OC)C(NS(=O)(=O)c1ccc(C)cc1)c1ccccc1` (centres unmarked) [9a]: the IC50 in data set [1] was > 50 µM; in data set [2] (A549, 48 h), 17.6 ± 1.3 µM; in data set [3], > 50 µM.
On to `CCOC(=O)CC(NS(=O)(=O)c1ccc(C)cc1)(c1c(F)c(F)c(F)c(F)c1F)P(=O)(OC)OC` (centres unmarked) [7o, Ethyl 3-(dimethoxyphosphoryl)-3-((4-methylphenyl)sulfonamido)-3-(perfluorophenyl)propanoate], for which the IC50 in data set [1] was > 50 µM; in data set [2] (A549, 48 h) it was 3.65 ± 0.21 µM; in data set [3] it was 20.5 ± 2.75 µM.
For the molecule `CCOC(=O)CC(NS(=O)(=O)c1ccc(C)cc1)(C(=O)OCC)c1ccccc1` (centres unmarked) [compound 6, Diethyl 2-((4-methylphenyl)sulfonamido)-2-phenylsuccinate], the IC50 in data set [1] was > 50 µM; in data set [2], 14.2 ± 0.41 µM; in data set [3], > 50 µM.
The molecule `COC(=O)CC(NS(=O)(=O)c1ccc(C)cc1)(c1cccc(F)c1)P(=O)(OC)OC` (centres unmarked) [compound 12, Methyl 3-(dimethoxyphosphoryl)-3-(3-fluorophenyl)-3-((4-methylphenyl)sulfonamido)propanoate] registered a melting point of 115 to 116 °C. The IC50 in data set [2] (A549, 48 h) was 24.1 ± 4.01 µM. For the same molecule, in data set [3], the “cytotoxicity against SKOV3 cell line (in words)” value is recorded as “no toxicity” and the half-maximal inhibitory concentration (IC50) was > 50 µM.

Source of the values: article PMC9693455, “Synthesis of Tetrasubstituted Phosphorus Analogs of Aspartic Acid as Antiproliferative Agents” (Molecules, 2022).
